Data: article PMC5041104, “Structure-based discovery of two antiviral inhibitors targeting the NS3 helicase of Japanese encephalitis virus” (Scientific Reports, 2016)

Tests used:
[1] = biological target: JEV NS3 helicase (ATPase activity) (Japanese encephalitis virus, UniProt P27395); assay: Effect on the ATPase activity of NS3 helicase (Kinase-Glo Plus luminescence); assay type: biochemical; details: 200 μM compound, 30 min
Method: The effect of each compound on ATPase activity was tested using a nonradioactive method as previously described. […] The reaction mixture comprised 3 μM of recombinant NS3 helicase and 100 μM ATP in ATPase reaction buffer (20 mM Tris-HCl pH 8.0, 50 mM NaCl, 10 mM MgCl2). Three reactions were conducted for each test. After incubation at 37 °C for 30 min, an equal volume of Kinase-Glo Plus reagent (Promega) was added to each well to quantitate the remaining ATP. The luminescence value of each well was tested by an Infinite 200 PRO multimode reader.

[2] = tested on: JEV; assay: Antiviral effect by Western blot of JEV envelope (E) protein in BHK-21 cells; assay type: cell-based, Japanese encephalitis virus; details: 48 h, normalized to GAPDH; for reduction of expression of E protein: 20 μM, relative to non-compound treated group
[3] = tested on: JEV; assay: Plaque reduction assay in BHK-21 cells; details: 48 h, untreated control 3.03 × 10^6 PFU/mL
[4] = Compound cytotoxicity (cell viability); details: hamster
[5] = tested on: JEV; assay: Antiviral effect by indirect immunofluorescence assay (IFA) of NS5 in BHK-21 cells; details: 48 h, JEV-infected control 84.03%
[6] = biological target: JEV NS3 helicase (unwinding activity) (Japanese encephalitis virus, UniProt P27395); assay: NS3 helicase unwinding inhibition, fluorescence resonance energy transfer (FRET) assay; details: for highest inhibitory level on NS3 helicase unwinding activity: concentration-dependent inhibition, levels reaching as high as; for inhibition of NS3 unwinding activity in helicase inhibitor screening: screening of 41 selected compounds, FRET assay
JEV NS3 helicase (unwinding activity), sequence (P27395 1684-2123): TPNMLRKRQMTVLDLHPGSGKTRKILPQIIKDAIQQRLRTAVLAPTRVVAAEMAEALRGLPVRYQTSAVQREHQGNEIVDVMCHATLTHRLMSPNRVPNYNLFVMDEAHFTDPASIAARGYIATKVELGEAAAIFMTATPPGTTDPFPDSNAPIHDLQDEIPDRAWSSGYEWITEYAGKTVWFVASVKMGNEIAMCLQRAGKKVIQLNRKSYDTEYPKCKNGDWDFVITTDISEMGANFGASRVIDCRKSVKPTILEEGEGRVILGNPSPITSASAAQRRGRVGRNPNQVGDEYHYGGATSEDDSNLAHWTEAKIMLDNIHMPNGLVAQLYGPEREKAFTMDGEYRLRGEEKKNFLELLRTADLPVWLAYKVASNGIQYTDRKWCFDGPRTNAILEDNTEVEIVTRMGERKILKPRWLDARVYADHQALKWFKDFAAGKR

[7] = tested on: JEV; assay: Determination of EC50 (CPE inhibition, Celltiter-Glo cell viability of JEV-infected BHK-21 cells); details: Japanese encephalitis virus, BHK-21, 120 h, read-out: 50% effective concentration (EC50)
[8] = biological target: WNV NS2B-NS3 protease; details: cited from earlier work
[9] = tested on: WNV; details: WNV in cells; read-out: EC50, inhibitory effect on the virus in cells; cited from earlier work

JEV NS3 helicase (ATPase activity), sequence (P27395 1684-2123): as above

CS(=O)(=O)c1ccc2nc(NC(=O)c3ccc(Cn4cc([N+](=O)[O-])cn4)cc3)sc2c1 [compound 1]
inhibition of ATPase activity of NS3 helicase [1]: do not inhibit the ATPase activity
reduction of expression of E protein [2]: 70.1%
average virus titer ([3]; 20 μM): 2.7 × 10^4 PFU/mL
average virus titer ([3]; 30 μM): 2.1 × 10^4 PFU/mL
average virus titer ([3]; 40 μM): 8.9 × 10^3 PFU/mL
CC50 at 120 h [4]: 168 µM
level of JEV-positive cells (NS5 positive) ([5]; 5 μM): 58.71%
level of JEV-positive cells (NS5 positive) ([5]; 25 μM): 13.29%
IC50 [6]: 148 µM
highest inhibitory level on NS3 helicase unwinding activity [6]: 79%
inhibition of NS3 unwinding activity in helicase inhibitor screening [6]: more than 60%
EC50 [7]: 25.7 µM

CCCC(=O)Nc1nc2ccc(NC(=S)NC(=O)c3cccs3)cc2s1 [compound 2]
inhibition of ATPase activity of NS3 helicase [1]: do not inhibit the ATPase activity
inhibition of E protein expression ([2]; 5 μM): 86.3%
reduction of expression of E protein [2]: 94.8%
average virus titer ([3]; 10 μM): 4.65 × 10^4 PFU/mL
average virus titer ([3]; 20 μM): 3.6 × 10^4 PFU/mL
average virus titer ([3]; 30 μM): 2.6 × 10^4 PFU/mL
average virus titer ([3]; 40 μM): 1.8 × 10^4 PFU/mL
viability at 120 h, 200 µM [4]: > 60%
level of JEV-positive cells (NS5 positive) ([5]; 5 μM): 50.40%
level of JEV-positive cells (NS5 positive) ([5]; 25 μM): 10.07%
IC50 [6]: 150 µM
highest inhibitory level on NS3 helicase unwinding activity [6]: 73%
inhibition of NS3 unwinding activity in helicase inhibitor screening [6]: more than 60%
EC50 [7]: 23.5 µM

phenacetyl-KKR-Aldehyde
Ki [8]: 0.009 µM
EC50 [9]: 1.6 µM
